Test results reported in patent US8506930B2, “Compounds having affinity for amyloid” (Nihon Medi-Physics Co., Ltd., priority 2006, dated 2013).
pIC50: −log10 of the molar value. Each block holds one compound with its values, some of them ahead of it.

Tests used:
[1] = normal mice, [125I]-labeled, cited from earlier work; for transfer into brain: 2 minutes after administration
[2] = Partition coefficient based on the octanol extraction method, Examples II-8 to II-9; format: physicochemical; conditions: octanol / 10 mmol/L phosphate buffer (pH 7.4); Table 2-4
Experimental: To 2 mL of octanol, 10 μL each of the prepared sample solutions was added, 2 mL of 10 mmol/L phosphate buffer (pH 7.4) was added, followed by stirring for 30 seconds. After the mixture was centrifuged with a low-speed centrifuge (2000 rpm×60 min.), the octanol layer and the water layer were sampled each in an amount of 1 mL, and subjected to measurement of radioactivity count with an autowell gamma system (Type: ARC-301B, manufactured by Aloka). Using the obtained radioactivity count, log Poctanol was calculated in accordance with the equation (2-2).

[3] = biological target: T1, intracerebral amyloid (aggregated Aβ1-42 injected into amygdaloid nucleus) (Homo sapiens, UniProt P05067); assay: Confirmation of imaging of amyloid in brain (ex vivo autoradiogram), Examples II-12 and II-13; parameters: species or system male Wistar rat; conditions: brain slice 60 minutes after tail vein injection
T1 construct: Aβ1-42 (Wako) was dissolved in phosphate buffer (pH 7.4); purchased Wako
Experimental: (§1) The same procedures as in Example II-12 were performed except using a 10 mg/mL solution of Compound II-2 in ascorbic acid (the radioactive concentration of the sample solution was 25 MBq/mL).

[4] = test system: intracerebral amyloid (aggregated Aβ1-42 injected into amygdaloid nucleus); assay: as above; parameters: species or system male Wistar rat; conditions: for radioactive accumulation at sites other than amyloid injected sites: autoradiogram, 60 minutes after tail vein injection; for accumulation of radioactivity in amygdaloid nucleus on the side to which the physiological saline solution was injected: brain slice 60 minutes after tail vein injection
Experimental: as §1

[5] = Transferability into brain and clearance, Examples II-10 to II-11; format: in vivo, male Wistar rats; conditions: rats, intravenous injection, Table 2-5
Experimental: 0.05 mL each of the prepared sample solutions was injected under thiopental anesthesia into the tail vein of the rats. The rats were sacrificed by bleeding from abdominal artery, and brains were removed and subjected to measurement of mass of brains and further subjected to measurement of radioactivity (hereinafter referred to as A in this Example) with a single channel analyzer (detector type SP-20 manufactured by OHYO KOKEN KOGYO Co., Ltd.) 2, 5, 30, and 60 minutes after the injection. Further, the radioactivity level of the rest of the whole body was measured in the same manner as above (hereinafter referred to as B in this Example). Using these measurement results, radioactive distribution per unit weight of brain (% ID/g) at the respective time points were calculated in accordance with the following formula (2-3).
Three animals were used for the experiment at the respective time points.

[6] = test system: bone marrow cells of Crlj:CD1(ICR) male mouse; assay: Micronucleus test; format: in vivo; conditions: for appearance frequency of MNPCE as compared to the negative control group: 24 and 48 hours after single administration
Experimental: In order to study mutagenicity (in vivo) of Compound I-4, induction of micronucleated polychromatic erythrocyte (hereinafter referred to as MNPCE) was examined using bone marrow cells of Crlj:CD1(ICR) male mouse.
0 mg/kg (negative control group), 250, 500, 1000 and 2000 mg/kg (test sample group) were set as doses for the test. Mice were sacrificed 24 and 48 hours after single oral administration, and bone marrow smear was prepared and observed. Further, a single dose of MMC at 2 mg/kg was abdominally administrated in positive control group, mice were sacrificed 24 hours after the administration, and then bone marrow smear was prepared and observed.
As statistical analysis, significance tests were conducted by Wilcoxon rank sum test for the appearance frequency of MNPCE and the ratio of polychromatic erythrocyte (hereinafter referred to as PCE) to the total red blood cell (hereinafter referred to as RBC) in each administration group concerning the test sample and positive control groups relative to the negative control group and concerning these groups relative to each other where the significance level was set to less than 5% and less than 1%, respectively.

[7] = test system: Salmonella typhimurium TA98; assay: Reverse mutation test (Ames test), TA98; format: cell-based
Experimental: (§2) In order to examine mutagenicity of Compound I-1, I-2, I-4 and I-5, reverse mutation test using Salmonella typhimurium TA98 and TA100 (hereinafter referred to as Ames test) was conducted.
(§3) The test was conducted without addition of S9mix and with addition of S9mix. Dimethylsulfoxide was used as a negative control. A positive control was 2-(2-furyl)-3-(5-nitro-2-furyl)acrylamide in case S9mix was not added, and 2-aminoanthracene in case S9mix was added.
(§4) The amount of each sample to be added to the test plate was 7 dosages (geometric ratio 4) with the maximum dose being 1250 μg/plate for Compounds I-1 and I-5, and 7 dosages (geometric ratio 3) with the maximum dose being 5000 μg/plate for Compounds I-2 and I-4. After a sample to be examined and a strain (TA98 or TA100), or a sample to be examined, S9mix and the strain were mixed together, the mixture was multilayered using soft agar on a medium of a test plate, and then incubated at 37° C. for 48 hours.

[8] = test system: Salmonella typhimurium TA98 and TA100; assay: Reverse mutation test (Ames test), overall judgment; format: cell-based; conditions: TA98 and TA100, with and without S9mix
Experimental: as §2, §3, §4

[9] = test system: Salmonella typhimurium TA100; assay: Reverse mutation test (Ames test), TA100; format: cell-based
Experimental: as §2, §3, §4

[10] = test system: Chinese Hamster fibroblast cell line (CHL/IU cell); assay: Chromosome aberration test; format: cell-based; conditions: short-term treatment with or without S9 and 24-hour continuous treatment; 0.15-1.2 mg/mL
Experimental: In order to examine whether Compound I-4 can induce chromosome aberration, the chromosome aberration test was conducted using Chinese Hamster fibroblast cell line (CHL/IU cell) in a culture system with or without addition of S9 by short-term treatment process and in a 24-hour culture system by continuous treatment process. The addition amount of a sample to be tested was set to 1.2, 0.6, 0.3, and 0.15 mg/mL for all the respective culture systems.

[11] = biological target: T2, amyloid (aggregated Aβ1-42) (Homo sapiens, UniProt P05067); assay: Measurement of affinity with amyloid (inhibition of [125I]3′-I-BTA-0 binding), Example II-7; conditions: [125I]3′-I-BTA-0 400 pmol/L, amyloid 1 μmol/L, 1% bovine serum albumin-containing phosphate buffer (pH 7.4)
T2 construct: Aβ1-42 (Wako) was dissolved in phosphate buffer (pH 7.4); purchased Wako
Excerpt: Then, each sample solution was filtered through a glass fiber filter (trade name: Mulutiscreen™-FC, manufactured by Millipore), to separate the [^125I]3′-I-BTA-0 attached to amyloid from the free [^125I]3′-I-BTA-0.
The measured radioactivity level was defined as the background radioactivity level, and used in the calculation of the inhibition ratio (hereinafter referred to as BG).
A graph in which values converted by probit transformation from the obtained inhibition ratios were plotted relative to logarithms of concentrations of compounds for evaluation was prepared to obtain an approximate straight line by the least square method.

[12] = Transferability into brain and clearance, Examples I-20 to I-21; format: in vivo, male Wistar rats; conditions: rats, intravenous injection, Table 1-7
Excerpt: Three animals were used for Experiment I-20 and Comparative Experiment I-9, and two animals were used for Experiment I-21 at the respective time points.

[13] = International Publication WO03/106439 pamphlet; cited from earlier work

T1 sequence (P05067 672-713): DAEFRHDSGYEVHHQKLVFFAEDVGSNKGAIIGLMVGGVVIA
T2 sequence (P05067 672-713 limits assumed): as the sequence (P05067 672-713) above

Compound: CN(C)c1ccc(-c2nc3ccc(I)cc3s2)cc1 [TZDM, 6-iodo-2-[4′-(N,N-dimethylamino)phenyl]benzothiazole]
transfer into brain [1]: transferred into brain | clearance from normal tissues [1]: insufficient in clearance from normal tissues

logPoctanol value [2]: 2.1 | accumulation of radioactivity in amygdaloid nucleus on the side to which the amyloid suspension was injected [3]: marked accumulation of radioactivity | Radioactive distribution in brain per unit weight, After 2 min. [5]: 0.89 % ID/g | Radioactive distribution in brain per unit weight, After 5 min. [5]: 0.66 % ID/g | Radioactive distribution in brain per unit weight, After 30 min. [5]: 0.13 % ID/g | Radioactive distribution in brain per unit weight, After 60 min. [5]: 0.04 % ID/g
Compound: CCOc1ccc(-c2cn3cc([123I])ccc3n2)cc1 [Compound II-2, 2-(4′-ethoxyphenyl)-6-[^123I]iodoimidazo[1,2-a]pyridine]
radioactive accumulation at sites other than amyloid injected sites [4]: some radioactive accumulation in sites other than amyloid injected sites, but the accumulation was highly suppressed as compared to ^123I-IMPY | accumulation of radioactivity in amygdaloid nucleus on the side to which the physiological saline solution was injected [4]: no significant accumulation of radioactivity

Compound: CN(C)c1ccc(-c2nc3ccc(I)cc3o2)cc1 [IBOX, 6-iodo-2-[4′-(N,N-dimethylamino)phenyl]benzoxazole]
transfer into brain [1]: transferred into brain | clearance from normal tissues [1]: insufficient in clearance from normal tissues

Compound: FCCOc1ccc(-c2cn3cc(I)ccc3n2)cc1 [Compound I-4, 2-[4′-(2″-fluoroethoxy)phenyl]-6-iodoimidazo[1,2-a]pyridine]
appearance frequency of MNPCE as compared to the negative control group ([6]; mouse bone marrow): no statistically significant difference | ratio of PCE to RBC as compared to the negative control group ([6]; mouse bone marrow, 24 and 48 hours after single oral administration, 250-2000 mg/kg): no statistically significant difference | mutagenicity (in vivo) judgment ([6]; single oral administration, 250-2000 mg/kg): negative | Mutagenicity, TA98 ([7]; With addition of S9mix): Negative | Mutagenicity, TA98 ([7]; Without addition of S9mix): Negative | judgment in the Ames test [8]: negative | Mutagenicity, TA100 ([9]; With addition of S9mix): Negative | Mutagenicity, TA100 ([9]; Without addition of S9mix): Negative | appearance frequency of cells having structural aberration or numerical aberration (diploid) [10]: comparable to that of the negative control group | capability of inducing chromosome aberration (judgment) [10]: negative

Compound: FCCCOc1ccc(-c2cn3cc(I)cnc3n2)cc1 [Compound I-5, 2-[4′-(3″-fluoropropoxy)phenyl]-6-iodoimidazo[1,2-a]pyrimidine]
Mutagenicity, TA98 ([7]; With addition of S9mix): Negative | Mutagenicity, TA98 ([7]; Without addition of S9mix): Negative | judgment in the Ames test [8]: negative | Mutagenicity, TA100 ([9]; With addition of S9mix): Negative | Mutagenicity, TA100 ([9]; Without addition of S9mix): Negative

pIC50 [11]: > 7.00
Compound: OCCOc1ccc(-c2cn3cc(I)ccc3n2)cc1 [Compound II-3, 2-[4′-(2″-hydroxyethoxy)phenyl]-6-iodoimidazo[1,2-a]pyridine]

pIC50 [11]: < 6.00
Compound: Nc1c(/N=N/c2ccc(-c3ccc(/N=N/c4cc(S(=O)(=O)O)c5ccccc5c4N)cc3)cc2)cc(S(=O)(=O)O)c2ccccc12 [Congo Red, reference compound]

Compound: OCCOc1ccc(-c2cn3cc([123I])ccc3n2)cc1 [Compound II-1, 2-[4′-(2″-hydroxyethoxy)phenyl]-6-[^123I]iodoimidazo[1,2-a]pyridine]
logPoctanol value [2]: 1.8 | accumulation of radioactivity in amygdaloid nucleus on the side to which the amyloid suspension was injected [3]: marked accumulation of radioactivity | radioactive accumulation at sites other than amyloid injected sites [4]: little radioactive accumulation at the sites other than amyloid injected sites | accumulation of radioactivity in amygdaloid nucleus on the side to which the physiological saline solution was injected [4]: no significant accumulation of radioactivity | Radioactive distribution in brain per unit weight, After 2 min. [5]: 0.90 % ID/g | Radioactive distribution in brain per unit weight, After 5 min. [5]: 0.52 % ID/g | Radioactive distribution in brain per unit weight, After 30 min. [5]: 0.06 % ID/g | Radioactive distribution in brain per unit weight, After 60 min. [5]: 0.01 % ID/g

Radioactive distribution in brain per unit weight, After 2 min. ([12]; 2 min.): 1.20 % ID/g | Radioactive distribution in brain per unit weight, After 5 min. ([12]; 5 min.): 0.75 % ID/g | Radioactive distribution in brain per unit weight, After 30 min. ([12]; 30 min.): 0.18 % ID/g | Radioactive distribution in brain per unit weight, After 60 min. ([12]; 60 min.): 0.12 % ID/g
Compound: [18F]CCCOc1ccc(-c2cn3cc(Br)ccc3n2)cc1 [Compound I-8, 6-bromo-2-[4′-(3″-[^18F]fluoropropoxy)phenyl]imidazo[1,2-a]pyridine]

Compound: CN(C)c1ccc(/C=C/c2ccc(I)cc2)cc1 [m-I-SB, (E)-4-dimethylamino-4′-iodostilbene]
transfer into brain [1]: transferred into brain | clearance from normal tissues [1]: insufficient in clearance from normal tissues

Compound: FCCCOc1ccc(-c2cn3cc(I)ccc3n2)cc1 [Compound I-2, 2-[4′-(3″-fluoropropoxy)phenyl]-6-iodoimidazo[1,2-a]pyridine]
Mutagenicity, TA98 ([7]; With addition of S9mix): Negative | Mutagenicity, TA98 ([7]; Without addition of S9mix): Negative | judgment in the Ames test [8]: negative | Mutagenicity, TA100 ([9]; With addition of S9mix): Negative | Mutagenicity, TA100 ([9]; Without addition of S9mix): Negative

Compound: CC(=C(C#N)C#N)c1ccc2cc(N(C)CCF)ccc2c1 [FDDNP, 2-(1-{6-[(2-fluoroethyl)(methyl)amino]-2-naphthyl}ethylidene)malononitrile]
reverse mutation test result [13]: positive

Compound: CO[C@@]12[C@H](COC(N)=O)C3=C(C(=O)C(C)=C(N)C3=O)N1C[C@@H]1N[C@@H]12 [MMC, reference compound]
appearance frequency of MNPCE as compared to the negative control group ([6]; mouse bone marrow): significant increase

Compound: FCCCOc1ccc(-c2cn3cc(Br)ccc3n2)cc1 [Compound I-1, 6-bromo-2-[4′-(3″-fluoropropoxy)phenyl]imidazo[1,2-a]pyridine]
Mutagenicity, TA98 ([7]; With addition of S9mix): Negative | Mutagenicity, TA98 ([7]; Without addition of S9mix): Negative | judgment in the Ames test [8]: negative | Mutagenicity, TA100 ([9]; With addition of S9mix): Negative | Mutagenicity, TA100 ([9]; Without addition of S9mix): Negative
